Laboratory results from patent US20250154198A1, “PEPTIDE INHIBITORS OF INTERLEUKIN-23 RECEPTOR” (Zealand Pharma A/S, priority 2021, published 2025).
*1 amine or outer side, *2 acyl side, *3 side chain or, on linkers, in order; H or OH if unused. Where a SMILES comes first, the peptide text is derived from it. Bridges are numbered along the chain shown (N, C = ends). [ ]: non-standard residue; d: D form. αMeAla(3-pyridyl) = C[C@](N)(Cc1cccnc1)C(=O)O; X10 = C[C@@](Cc1ccc(F)cc1)(N[*:1])C(=O)[*:2]; Phe(3,4-Me2) = Cc1ccc(C[C@H](N)C(=O)O)cc1C; Phe(4-Cl) = N[C@@H](Cc1ccc(Cl)cc1)C(=O)O; αMeW = C[C@](N)(Cc1c[nH]c2ccccc12)C(=O)O; 2Nal = N[C@@H](Cc1ccc2ccccc2c1)C(=O)O; AEF = NCCOc1ccc(C[C@H](N)C(=O)O)cc1; X1 = O=C(Cc1ccc(CN[*:1])cc1)[*:2]; αMeL = CC(C)C[C@](C)(N)C(=O)O; CH2COCH2 = O=C(C[*:1])C[*:2]; αMeV = CC(C)[C@](C)(N)C(=O)O; Dab = NCC[C@H](N)C(=O)O

What was measured:
[1] = Peptide stability in simulated gastric fluid (SGF); type: in vitro ADME; conditions: Table 3-3, porcine pepsin, pH 1.2, 37° C., 10 μM; for remaining at 1 h, 10 μM / remaining at 4 h, 10 μM: pig, simulated gastric fluid (SGF) with porcine pepsin; for remaining at 1 h, 10 μM: read-out: SGF (% remaining 1 h); for remaining at 4 h, 10 μM: read-out: SGF (% remaining 4 h)
Protocol: Determination of Peptide Stability in Simulated Gastric Fluid (SGF) and Simulated Intestinal Fluid (SIF)
SGF was prepared by dissolving sodium chloride (0.2 g) in 50 mL of water. A volume of 0.7 mL of 10 M HCl was added to adjust the pH of the solution to 1.2 and the volume made up to 100 mL with water. […] SIF was prepared by dissolving monobasic potassium phosphate (0.68 g) in 50 mL of water and adjusting the pH to 6.8 with 1 M NaOH. The volume was subsequently made up to 100 mL with water. 200 mg porcine pancreatin (P1625, Sigma Aldrich) was gently dissolved into 20 mL preheated (37° C.) solution (10 g/L) immediately prior to the incubation.
The incubation was performed at 37° C. with gentle shaking. […] After the last timepoint, the sampling plate was mixed for 10 min on a shaking table and centrifuged 10 min at 2200 g. 70 μL resulting supernatant was diluted with 150 μL water, mixed and centrifugated before analysis by liquid chromatography high resolution mass spectrometry. […] Percent remaining at each timepoint was calculated relative to timepoint zero based on absolute peak areas.

[2] = Peptide stability in simulated intestinal fluid (SIF); type: in vitro ADME; conditions: pig, simulated intestinal fluid (SIF) with porcine pancreatin, Table 3-2, porcine pancreatin, pH 6.8, 37° C., 10 μM; for remaining at 1 h, 10 μM: read-out: SIF (% remaining 1 h); for remaining at 4 h, 10 μM: read-out: SIF (% remaining 4 h)
How it was run: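 Peptides incubated at 37°C with gentle shaking in SGF (NaCl, HCl, pH 1.2) or SIF (phosphate pH 6.8 with 10 g/L porcine pancreatin). Samples analysed by LC-HRMS; percent remaining at each timepoint calculated from absolute peak areas relative to time zero.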

| Compound | remaining at 1 h, 10 μM [1] | remaining at 4 h, 10 μM ([1]; 4 h) | remaining at 1 h, 10 μM [2] | remaining at 4 h, 10 μM [2] | SGF (% remaining 4 h) ([1]; 4 h) |
| --- | --- | --- | --- | --- | --- |
| CC(C)C[C@]1(C)NC(=O)[C@H](Cc2ccc3ccccc3c2)NC(=O)[C@H](Cc2ccccc2)NC(=O)[C@@H]2CCNC(=O)CC[C@H](NC(=O)[C@H](CO)NC(=O)Cc3ccc(cc3)CNC(=O)CC[C@@H](C(=O)N[C@@H](CCN)C(N)=O)NC1=O)C(=O)N[C@@H](Cc1c[nH]c3ccccc13)C(=O)N[C@@H](CCC(N)=O)C(=O)N2 [Compound 130, [4-Aminomethyl-phenylacetyl](1c)*SE(2c)WQ[Dab](2c)F[2-Nal][2-Me-Leu]E(1c)[Dab]-[NH2]] ([X1]SEWQ[Dab]F[2Nal][αMeL]E[Dab]-NH2; lactam 3-6, N-10) | 59% | 14% | 1% | 0% | – |
| CC[C@H](C)[C@@H]1NC(=O)Cc2ccc(cc2)CNC(=O)CC[C@@H](C(=O)N[C@@H](CCN)C(=O)N[C@@](C)(Cc2cccnc2)C(N)=O)NC(=O)[C@](C)(C(C)C)NC(=O)[C@H](Cc2ccc(C)c(C)c2)NC(=O)[C@](C)(Cc2ccc(F)cc2)NC(=O)[C@@H]2CCNC(=O)CC[C@H](NC1=O)C(=O)N[C@@H](Cc1c[nH]c3ccccc13)C(=O)N[C@@H](CCC(N)=O)C(=O)N2 [Compound 169, [4-Aminomethyl-phenylacetyl](1c)*IE(2c)WQ[Dab](2c)[2-Me-F(4-F)][F(3,4-Me)][2-Me-Val]E(1c)[Dab][2-Me-3-(3-Pyridyl)-Ala]-[NH2]] ([X1]IEWQ[Dab][X10][Phe(3,4-Me2)][αMeV]E[Dab][αMeAla(3-pyridyl)]-NH2; lactam 3-6, N-10) | – | – | – | 72% | 121% |
| CC[C@H](C)[C@@H]1NC(=O)Cc2ccc(cc2)CNC(=O)CC[C@@H](C(=O)N[C@@H](CCN)C(=O)N[C@@](C)(Cc2cccnc2)C(N)=O)NC(=O)[C@](C)(C(C)C)NC(=O)[C@H](Cc2ccc(C)c(C)c2)NC(=O)[C@H](Cc2ccc(Cl)cc2)NC(=O)[C@@H]2CCNC(=O)CC[C@H](NC1=O)C(=O)N[C@@H](Cc1c[nH]c3ccccc13)C(=O)N[C@@H](CCC(N)=O)C(=O)N2 [Compound 171, [4-Aminomethyl-phenylacetyl](1c)*IE(2c)WQ[Dab](2c)[F(4-Cl)][F(3,4-Me)][2-Me-Val]E(1c)[Dab][2-Me-3-(3-Pyridyl)-Ala]-[NH2]] ([X1]IEWQ[Dab][Phe(4-Cl)][Phe(3,4-Me2)][αMeV]E[Dab][αMeAla(3-pyridyl)]-NH2; lactam 3-6, N-10) | – | 75% | – | 68% | – |
| CC[C@H](C)[C@@H]1NC(=O)Cc2ccc(cc2)CNC(=O)CC[C@@H](C(=O)N[C@@H](CCN)C(=O)N[C@@](C)(Cc2cccnc2)C(N)=O)NC(=O)[C@](C)(C(C)C)NC(=O)[C@H](Cc2ccc(C)c(C)c2)NC(=O)[C@](C)(Cc2c[nH]c3ccccc23)NC(=O)[C@@H]2CCNC(=O)CC[C@H](NC1=O)C(=O)N[C@@H](Cc1c[nH]c3ccccc13)C(=O)N[C@@H](CCC(N)=O)C(=O)N2 [Compound 172, [4-Aminomethyl-phenylacetyl](1c)*IE(2c)WQ[Dab](2c)[alpha-Me-Trp][F(3,4-Me)][2-Me-Val]E(1c)[Dab][2-Me-3-(3-Pyridyl)-Ala]-[NH2]] ([X1]IEWQ[Dab][αMeW][Phe(3,4-Me2)][αMeV]E[Dab][αMeAla(3-pyridyl)]-NH2; lactam 3-6, N-10) | – | 99% | – | 70% | – |

Further lines, results first:

| remaining at 1 h, 10 μM [1] | remaining at 4 h, 10 μM ([1]; 4 h) | remaining at 1 h, 10 μM [2] | remaining at 4 h, 10 μM [2] | SGF (% remaining 4 h) ([1]; 4 h) | Compound |
| --- | --- | --- | --- | --- | --- |
| 7% | 0% | 69% | 12% | – | CC(=O)N[C@@H](CC(=O)O)C(=O)N[C@H]1CCC(=O)NCCCC[C@@H](C(=O)NCC(N)=O)NC(=O)[C@](C)(CC(C)C)NC(=O)[C@H](Cc2ccc3ccccc3c2)NC(=O)[C@H](Cc2c[nH]c3ccccc23)NC(=O)[C@@H]2CSCC(=O)CSC[C@H](NC(=O)[C@H](CO)NC1=O)C(=O)N[C@@H](Cc1c[nH]c3ccccc13)C(=O)N[C@@H](CCC(N)=O)C(=O)N2 [Compound 60, [Ac]-DE(1c)SC(2a)WQC(2a)W[2-Nal][2-Me-Leu]K(1c)G-[NH2]] (Ac-DESCWQCW[2Nal][αMeL]KG-NH2; lactam 2-11; linker 4-7 via CH2COCH2) |
| – | 109% | – | 109% | – | CC[C@H](C)[C@@H]1NC(=O)Cc2ccc(cc2)CNC(=O)CC[C@@H](C(=O)N[C@@H](CCN)C(=O)N[C@@](C)(Cc2cccnc2)C(N)=O)NC(=O)[C@](C)(C(C)C)NC(=O)[C@H](Cc2ccc(C)c(C)c2)NC(=O)[C@H](Cc2ccc(OCCN)cc2)NC(=O)[C@@H]2CCNC(=O)CC[C@H](NC1=O)C(=O)N[C@@H](Cc1c[nH]c3ccccc13)C(=O)N[C@@H](CCC(N)=O)C(=O)N2 [Compound 165, [4-Aminomethyl-phenylacetyl](1c)*IE(2c)WQ[Dab](2c)[Y(2-aminoethoxy)][F(3,4-Me)][2-Me-Val]E(1c)[Dab][2-Me-3-(3-Pyridyl)-Ala]-[NH2]] ([X1]IEWQ[Dab][AEF][Phe(3,4-Me2)][αMeV]E[Dab][αMeAla(3-pyridyl)]-NH2; lactam 3-6, N-10) |
| 100% | – | 92% | 76% | – | CC(=O)N[C@H]1CCSC[C@@H](C(=O)N[C@@H](Cc2ccc(OCCN)cc2)C(=O)N[C@@H](Cc2c[nH]c3ccccc23)C(=O)N[C@@](C)(CCCCN)C(=O)N[C@@H](CCC(=O)O)C(=O)N[C@@H](CC(N)=O)C(=O)NCC(N)=O)NC(=O)[C@H](CCC(N)=O)NC(=O)[C@H](Cc2c[nH]c3ccccc23)NC(=O)[C@H]([C@@H](C)O)NC(=O)[C@H](CCC(N)=O)NC1=O [Compound C, [Ac]-[Abu](16i)QTWQC(16i)[Y(2-aminoethoxy)]W[2-Me-Lys]ENG-[NH2], reference compound] |
